Results as given in ChEMBL document CHEMBL1201862, “PubChem BioAssay data set” (2004).
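Briefly, cells in 96-well plates were exposed to five compound concentrations for 48 h, and endpoints were estimated by linear interpolation. The concentration for 50% growth inhibition is given as GI50.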 Activity calls are given as the source filed them. Cut-off read from the data, not from the text of the source: active = GI50 up to about 1.1 µM and inactive = higher. Where a SMILES comes first, the peptide text is derived from it. [ ]: non-standard residue; d: D form. The star is where a group is joined. Hyp = O=C(O)[CH]1C[CH](O)CN1; Cbz = O=C(OCc1ccccc1)*

Experiments:
Test in all cases: growth of human tumour cells (NCI), 48 h
UO-31 = test system: UO-31
SF-295 = test system: SF-295
IGROV-1 = test system: IGROV-1
SK-MEL-5 = test system: SK-MEL-5
KM12 = test system: KM12
Hs-578T = test system: Hs-578T
OVCAR-8 = test system: OVCAR-8
SN12C = test system: SN12C
LOX IMVI = test system: LOX IMVI
NCI/ADR-RES = test system: NCI/ADR-RES
T47D = test system: T47D
DU-145 = test system: DU-145
HOP-92 = test system: HOP-92
M14 = test system: M14
OVCAR-4 = test system: OVCAR-4
HCT-15 = test system: HCT-15
A549 = test system: A549
MOLT-4 = test system: MOLT-4
NCI-H460 = test system: NCI-H460
ACHN = test system: ACHN

SMILES | GI50 (UO-31) | GI50 (SF-295) | GI50 (IGROV-1) | GI50 (SK-MEL-5) | GI50 (KM12) | GI50 (Hs-578T) | GI50 (OVCAR-8) | GI50 (SN12C) | GI50 (LOX IMVI) | GI50 (NCI/ADR-RES) | GI50 (T47D) | GI50 (DU-145) | GI50 (HOP-92) | GI50 (M14) | GI50 (OVCAR-4) | GI50 (HCT-15) | GI50 (A549) | GI50 (MOLT-4) | GI50 (NCI-H460) | GI50 (ACHN)
CCCCn1c2c(c3ccccc3c1=O)C(=O)c1ccccc1-2 | 2.79 µM (inactive) | 37.8 µM (inactive) | 76.7 µM (inactive) | 5.98 µM (inactive) | > 100 µM (inactive) | 33.7 µM (inactive) | > 100 µM (inactive) | > 100 µM (inactive) | > 100 µM (inactive) | > 100 µM (inactive) | 16.2 µM (inactive) | 34.5 µM (inactive) | > 100 µM (inactive) | > 100 µM (inactive) | 1.82 µM (inactive) | > 100 µM | 25 µM (inactive) |  |  | 
O=c1[nH]nc(-c2ccccc2)n1-n1cccc1 | > 100 µM (inactive) | > 100 µM (inactive) | > 100 µM (inactive) | > 100 µM (inactive) | > 100 µM (inactive) | > 100 µM (inactive) | > 100 µM (inactive) | > 100 µM (inactive) | > 100 µM (inactive) | > 100 µM (inactive) | > 100 µM (inactive) | > 100 µM (inactive) |  | > 100 µM (inactive) | > 100 µM (inactive) | > 100 µM | > 100 µM (inactive) | 35.6 µM (inactive) | > 100 µM (inactive) | > 100 µM (inactive)
O=[N+]([O-])c1ccc(Cl)cc1N/N=C/c1ccnc2ccccc12 | > 100 µM (inactive) | > 100 µM (inactive) | > 100 µM (inactive) | > 100 µM (inactive) | > 100 µM (inactive) | 52.4 µM (inactive) | 46.5 µM (inactive) | > 100 µM (inactive) |  | 53.3 µM (inactive) | > 100 µM (inactive) | > 100 µM (inactive) |  | > 100 µM (inactive) | > 100 µM (inactive) | > 100 µM | > 100 µM (inactive) | > 100 µM (inactive) | > 100 µM (inactive) | > 100 µM (inactive)
CN(C1=NCCO1)c1cccc2c1CCCC2 |  | 4.35 µM (inactive) | 2.75 µM (inactive) | 2.11 µM (inactive) | 6.97 µM (inactive) | 8.15 µM (inactive) | 5.3 µM (inactive) | 3.08 µM (inactive) | 2.58 µM (inactive) | 3.6 µM (inactive) | 8.85 µM (inactive) | 9.55 µM (inactive) |  | 2.23 µM (inactive) | 3.05 µM (inactive) | 3.48 µM | 4.26 µM (inactive) | 1.77 µM (inactive) | 4.01 µM (inactive) | 3.18 µM (inactive)
CCNC1=C(NC(=O)CCl)C(=O)c2ccccc2C1=O |  | 19.4 µM (inactive) | > 10 µM (inactive) | 16.7 µM (inactive) | 17.1 µM (inactive) | 24.2 µM (inactive) | 20.1 µM (inactive) | 17.9 µM (inactive) |  | 23.6 µM (inactive) | 22.3 µM (inactive) | > 10 µM (inactive) | 21 µM (inactive) | 20.9 µM (inactive) | 17 µM (inactive) | 18.5 µM | 33.7 µM (inactive) | 18.2 µM (inactive) | 23.7 µM (inactive) | 18 µM (inactive)
O=[N+]([O-])/C(C(Cl)=C(Cl)Cl)=C(\Nc1cccc2ccccc12)Sc1ccccc1 | 16 µM (inactive) | 15.2 µM (inactive) |  |  | 13.2 µM (inactive) | 12.8 µM (inactive) | 15.3 µM (inactive) | 20.2 µM (inactive) |  | 15.2 µM (inactive) | 19.5 µM (inactive) | 13.2 µM (inactive) |  | 24.9 µM (inactive) | 10.4 µM (inactive) | 15.7 µM | 19.7 µM (inactive) | > 100 µM (inactive) | 19.8 µM (inactive) | 13.9 µM (inactive)
COc1ccc2cc(C(=O)O)ccc2c1OC | > 100 µM (inactive) | > 100 µM (inactive) | > 100 µM (inactive) | > 100 µM (inactive) | > 100 µM (inactive) | > 100 µM (inactive) | > 100 µM (inactive) | > 100 µM (inactive) |  | > 100 µM (inactive) | > 100 µM (inactive) | 69.5 µM (inactive) |  | > 100 µM (inactive) |  | > 100 µM | > 100 µM (inactive) | > 100 µM (inactive) | > 100 µM (inactive) | > 100 µM (inactive)
CCCN(CCC)c1cc2c(cc1F)c(=O)c(C(=O)O)cn2-c1ccc(N2CCN(C)CC2)cn1 | 13.3 µM (inactive) | 17.8 µM (inactive) | 12.9 µM (inactive) |  | 15.1 µM (inactive) | 17 µM (inactive) | 14.3 µM (inactive) | 22.5 µM (inactive) | 3 µM (inactive) | 17.6 µM (inactive) | 17 µM (inactive) | 19.5 µM (inactive) | 13 µM (inactive) | 16.9 µM (inactive) | 19.2 µM (inactive) | 22.9 µM | 16.1 µM (inactive) | 16.2 µM (inactive) | 17.5 µM (inactive) | 
CN1CCN(C(=S)N(C)C(=O)c2ccc(Cl)cc2)CC1 | > 100 µM (inactive) | > 100 µM (inactive) | > 100 µM (inactive) | > 100 µM (inactive) | > 100 µM (inactive) | > 100 µM (inactive) | > 100 µM (inactive) | > 100 µM (inactive) | > 100 µM (inactive) |  | > 100 µM (inactive) | > 100 µM (inactive) | > 100 µM (inactive) | > 100 µM (inactive) | > 100 µM (inactive) | > 100 µM | > 100 µM (inactive) | > 100 µM (inactive) | > 100 µM (inactive) | 0.132 µM (active)
Nc1c(C(=O)O)c2ccc([N+](=O)[O-])cc2c(=O)n1-c1nc2ccccc2s1 | > 100 µM (inactive) | > 100 µM (inactive) | > 100 µM (inactive) | > 100 µM (inactive) | > 100 µM (inactive) | > 100 µM (inactive) | > 100 µM (inactive) | > 100 µM (inactive) | > 100 µM (inactive) | > 100 µM (inactive) | > 100 µM (inactive) | > 100 µM (inactive) |  | > 100 µM (inactive) | > 100 µM (inactive) | > 100 µM | > 100 µM (inactive) | > 100 µM (inactive) | > 100 µM (inactive) | > 100 µM (inactive)
CCOC(=O)/C(C#N)=C/N(CC)/N=C/c1ccccc1 | > 100 µM (inactive) | 69.8 µM (inactive) | > 100 µM (inactive) | > 100 µM (inactive) | > 100 µM (inactive) | 54.7 µM (inactive) | 81.3 µM (inactive) | > 100 µM (inactive) |  | 60.4 µM (inactive) | > 100 µM (inactive) | > 100 µM (inactive) | > 100 µM (inactive) | > 100 µM (inactive) | > 100 µM (inactive) | > 100 µM | > 100 µM (inactive) | > 100 µM (inactive) | > 100 µM (inactive) | > 100 µM (inactive)
COc1cc(S(=O)(=O)Nc2ccc(-c3csc(N4C(=O)C(C)SC4c4cccs4)n3)cc2)ccc1Cl (configuration not stated) | 46.3 µM (inactive) | > 100 µM (inactive) | 29.1 µM (inactive) | 41.3 µM (inactive) | 0.931 µM (active) | 6.17 µM (inactive) | 32.4 µM (inactive) | 39.3 µM (inactive) | 5.27 µM (inactive) | > 100 µM (inactive) | 10.8 µM (inactive) | 20.7 µM (inactive) | 20.1 µM (inactive) | 30.8 µM (inactive) |  | 37 µM |  | 16 µM (inactive) |  | > 100 µM (inactive)
CCOC1CC(C)N(C(=O)c2ccccc2)O1 (configuration not stated) | > 100 µM (inactive) | > 100 µM (inactive) | > 100 µM (inactive) | > 100 µM (inactive) | > 100 µM (inactive) | > 100 µM (inactive) | > 100 µM (inactive) | > 100 µM (inactive) |  | > 100 µM (inactive) | > 100 µM (inactive) | > 100 µM (inactive) | 31.7 µM (inactive) | > 100 µM (inactive) |  |  | > 100 µM (inactive) | > 100 µM (inactive) | > 100 µM (inactive) | > 100 µM (inactive)
Cc1ccccc1NC(=N)Nc1ccccc1C |  | > 100 µM (inactive) | > 100 µM (inactive) | > 100 µM (inactive) | > 100 µM (inactive) | > 100 µM (inactive) | > 100 µM (inactive) | > 100 µM (inactive) | > 100 µM (inactive) | > 100 µM (inactive) | > 100 µM (inactive) | > 100 µM (inactive) |  | 66.8 µM (inactive) | > 100 µM (inactive) | > 100 µM | > 100 µM (inactive) | > 100 µM (inactive) | > 100 µM (inactive) | > 100 µM (inactive)
O=C1Cc2c([nH]c3ccc(Br)cc23)-c2cc(O)c(O)cc2N1 | > 100 µM (inactive) | > 100 µM (inactive) |  |  | > 100 µM (inactive) | > 100 µM (inactive) | > 100 µM (inactive) | > 100 µM (inactive) | > 100 µM (inactive) | > 100 µM (inactive) | > 100 µM (inactive) | > 100 µM (inactive) | > 100 µM (inactive) | > 100 µM (inactive) | > 100 µM (inactive) | > 100 µM | > 100 µM (inactive) | 71.8 µM (inactive) | > 100 µM (inactive) | > 100 µM (inactive)
NC(=O)CNC(=O)C1CC(O)CN1C(=O)C1CCCN1C(=O)OCc1ccccc1 (stereo not drawn) (Cbz-Pro-[Hyp]-Gly-NH2; configuration not given here) | > 100 µM (inactive) | > 100 µM (inactive) | > 100 µM (inactive) | > 100 µM (inactive) | > 100 µM (inactive) | > 100 µM (inactive) | > 100 µM (inactive) | > 100 µM (inactive) | > 100 µM (inactive) | > 100 µM (inactive) | > 100 µM (inactive) | > 100 µM (inactive) |  | > 100 µM (inactive) | > 100 µM (inactive) | > 100 µM | > 100 µM (inactive) | > 100 µM (inactive) | > 100 µM (inactive) | > 100 µM (inactive)
